Measurements: ChEMBL document CHEMBL1130660, “Design and synthesis of a tetrahydropyran-based inhibitor of mammalian ribonucleotide reductase” (Bioorg Med Chem Lett, 1998)

Legend:
Format in all cases: protein-complex assay
[1] = biological target: T1, Ribonucleoside-diphosphate reductase RR1 (Homo sapiens) (UniProt P23921+Q7LG56+P31350); experiment: Mammalian ribonucleotide reductase (mRR) inhibitory activity at a dose of 500 uM
[2] = biological target: T1, Ribonucleoside-diphosphate reductase RR1 (Homo sapiens); experiment: Mammalian ribonucleotide reductase (mRR) inhibitory activity at a dose of 1000 uM
[3] = biological target: T1, Ribonucleoside-diphosphate reductase RR1 (Homo sapiens); experiment: Mammalian ribonucleotide reductase (mRR) inhibitory activity at a dose of 300 uM
[4] = biological target: T1, Ribonucleoside-diphosphate reductase RR1 (Homo sapiens); experiment: Mammalian ribonucleotide reductase (mRR) inhibitory activity at a dose of 30 uM
[5] = biological target: T1, Ribonucleoside-diphosphate reductase RR1 (Homo sapiens); experiment: Mammalian ribonucleotide reductase (mRR) inhibitory activity at a dose of 0 uM
[6] = biological target: T1, Ribonucleoside-diphosphate reductase RR1 (Homo sapiens); experiment: Mammalian ribonucleotide reductase (mRR) inhibitory activity at a dose of 100 uM

Residual RR activity [1]: 48%
Residual RR activity [2]: 32%
Residual RR activity [3]: 64%
Residual RR activity [4]: 86%
Residual RR activity [5]: 100%
Residual RR activity [6]: 73%
Compound: CC(=O)N[C@@H](Cc1ccccc1)C(=O)NC[C@@H]1O[C@H]([C@@H](C)C(=O)N[C@@H](CC(=O)O)C(=O)N[C@@H](Cc2ccccc2)C(=O)O)[C@@H](OCC(=O)O)C[C@H]1OCC(C)C
